According to patent publication US7514419B2, “Phosphorus-containing thyromimetics” (Metabasis Therapeutics, Inc., priority 2003, dated 2009):

Key:
[1] = tested on: normal rats maintained on a cholesterol-containing diet; test: Continuous infusion study in rats on a cholesterol-containing diet; conditions: continuous infusion 1 mg/kg/day
Method: Screening for thyromimetic activity was performed in normal rats maintained on a cholesterol-containing diet.

cholesterol-fed rat [2] = test: Subacute study in cholesterol-fed rats, IP once-a-day for seven days: serum cholesterol, heart weight, heart mGPDH
Method: The cholesterol-fed rat is an animal model of hypercholesterolemia generated by feeding the animals a diet with high cholesterol content.
Methods: Rats were maintained on a diet containing 1.5% cholesterol and 0.5% cholic acid for 2 weeks prior to initiation of treatment. Serum cholesterol values were assessed and the animals randomized into groups for treatment.

mice = test: Circulating TSH, mice, 77 days; format: in vivo, mouse; conditions: 10 mg/kg/d for 77 days
Excerpt: (§1) Another concern with synthetic thyromimetics is the suppression of the endogenous thyroid axis. Thyroid homeostasis is maintained by the action of thyroid releasing hormone (TRH) and thyroid stimulating hormone (TSH). […] Although this particular side effect has been noted, it has typically been treated with less concern than the cardiac safety issues. […] Therefore previous investigators have measured TSH levels when testing synthetic thyromimetics and have used a 30% decrease of TSH as the denominator in their therapeutic index calculations. […] Therefore, both compounds suppress TSH as doses lower than that required to decrease circulating cholesterol. […] However, 0.2 mg/kg/d of Compound 18 in 28 day treated ZDF rats, decreased TSH levels greater than 90%.

Normal rats = test: Hepatic triglyceride content in normal rats infused for 7 days; format: in vivo, rat; conditions: normal rats chronically infused for 7 days
Method: Normal rats were chronically infused with Compound 7 for 7 days. Liver triglycerides were analyzed following lipid extraction by the Bligh Dyer method (Bligh EG and Dyer WJ, A rapid method of total lipid extraction and purification. Can J Med Sci. 1959 (August); 37(8):911-7, incorporated herein by reference). Total triglycerides were analyzed in the liver extracts by an enzymatic assay (Thermo Electron Corporation). Total lipid was normalized to initial liver weight and triglyceride content was normalized to liver weight. […] There was a 4% reduction in liver triglycerides for this group and the results were not statistically significant.

ZDF rats [3] = test: Circulating TSH, ZDF rats, 28 days; format: in vivo, rat; conditions: 50 mg/kg/d for 28 days
Excerpt: as §1

ZDF rats [4] = test: Hepatic triglyceride content and steatosis in ZDF rats, oral 28 days; format: in vivo, rat
Method: In other experiments, Compound 7 was orally administered to ZDF rats for 28 days. Liver triglycerides were analyzed as described above. Total liver triglycerides were reduced in the treated animals 42% in the 2.5 mg/kg/d group. […] The hepatic steatosis is a well known and described phenomenon for the ZDF rat, and therefore not attributable to vehicle treatment.

Sprague Dawley (SD) rat = test: Cardiovascular activity in the Sprague Dawley rat, 7 days oral; format: in vivo; conditions: SD rats, Compound 18 1 mg/kg, Compound cis-13-1 1-50 mg/kg/day
Excerpt: Method: […] The control group (n=6) was given vehicle only. […] On the 7th day after the start of dosing, animals were anesthetized with Isofluorane and the left ventricle cannulated with a high fidelity catheter tip transducer via the right carotid artery. Left ventricular pressure, its first derivative (LVdP/dt), lead I ECG, and heart rate (HR) triggered off the ECG waveform, were digitally recorded. LV dP/dt is a well accepted measure of ionotropic state. Systolic and diastolic aortic pressures were measured by retracting the catheter into the proximal aorta.

cholesterol fed rats = test: Subacute study in cholesterol fed rats, PO once a day for seven days: cholesterol reduction, heart weight; format: in vivo, rat; conditions: 1 mg/kg/day PO once a day for seven days
Method: Methods: […] Compound 13-1-cis and Compound 18 were administered PO once a day for seven days. Serum TSH is measured using an enzyme immunoassay (EIA) kit designed for rat TSH (Amersham Pharmacia Biotech, Arlington Heights, Ill.). Expression levels of liver genes (e.g., the LDL-receptor, apoB, cpt-1, spot14 and apoAI) and heart genes ([…]2, HCN2,Kvl.5, MHCα, MHCβ, Alpha1c) are quantified by Northern blot analysis or by RT-PCR. […] Oligonucleotides specific for the complementary gene sequences are used to make ^32P-labeled probes (Multiprime DNA labeling systems, Amersham Pharmacia Biotech). Following hybridization of the probes to the nylon membranes, radioactivity is assessed on a blue film (Eastman Kodak Co,), and the resulting image quantified using the appropriate software. RT-PCR is performed using an iCycler instrument (Biorad) using appropriate primers by means of standard methodology [[…] et al. (2000) Life Sciences 66: 1683-94]. […] The activities of PEPCK and glucose 6-phosphatase in liver are measured by means of direct enzymatic assays of homogenized liver tissue as described by Andrikopoulos S et al. (1993) Diabetes 42: 1731-1736. Alternatively, expression levels of the corresponding genes are determined by Northern blot analysis or RT-PCR as described above.

cholesterol-fed rat [5] = conditions: ED15 for heart rate compared to ED50 for cholesterol lowering; cited from earlier work
cholesterol-fed rats = test: Circulating TSH, cholesterol-fed rats, 7 days; format: in vivo, rat; conditions: cholesterol-fed rats treated for 7 days; 30% decrease of TSH
Excerpt: as §1

ZDF rats [6] = conditions: ZDF, rat, in vivo, po, 28 days
Method: Compound 18 was administered at doses up to 5 mg/kg/d. Compound cis-13-1 was administered at doses up to 50 mg/kg/d. We reasoned that the ZDF rat, as a metabolically challenged animal model, would be more sensitive to the potential adverse cardiac effects of thyromimetics than a normal, cholesterol-fed rat. At sacrifice, heart rate, and the first derivative of left ventricular pressure (LV dP/dt) were measured with a Millar catheter inserted into the left ventricle.

| SMILES | total cholesterol at day 7 [1] | total cholesterol at day 14 [1] | cardiovascular parameters (heart rate, LV dP/dt, blood pressure) ([1]; day 7 or day 14) | Cardiac GPDH activity (cholesterol-fed rat [2]; Compound 17 at 1 mg/kg/day, compound 7 only at 100 mg/kg) | therapeutic window (efficacy vs toxicity) (cholesterol-fed rat [2]; cholesterol lowering vs cardiac hypertrophy, induction of heart GPDH) | TSH (mice) | decrease in hepatic triglyceride content (Normal rats) | TSH vs vehicle (ZDF rats [3]) | microvesicular steatosis (H&E liver sections) (ZDF rats [4]) | HR, LV dP/dt and aortic pressure compared to vehicle (Sprague Dawley (SD) rat) | serum cholesterol (cholesterol fed rats) | therapeutic index (TI) with respect to heart rate increases (cholesterol-fed rat [5]) | therapeutic index of TSH levels (cholesterol-fed rats) | TI for LV dP/dt (ZDF rats [6]) | therapeutic index with respect to heart rate (ZDF rats [6]) |
| --- | --- | --- | --- | --- | --- | --- | --- | --- | --- | --- | --- | --- | --- | --- | --- |
| Cc1cc(OCP(=O)(O)O)cc(C)c1Cc1ccc(O)c(C(C)C)c1 [Compound 7, [3,5-dimethyl-4-(4′-hydroxy-3′-iso-propylbenzyl)phenoxy]-methylphosphonic acid] | cholesterol lowering effects | cholesterol lowering effects | no changes in any of the cardiovascular parameters | trend towards increased heart GPDH activity | 10-to 100 fold | no decrease in TSH was observed | 64% | no statistically significant difference from vehicle | dose dependent reduction in the microvesicular steatosis | – | – | – | – | – | – |
| CC(C)c1cc(Oc2c(Cl)cc(CC(=O)O)cc2Cl)ccc1O [Compound 18, 3,5-dichloro-4-[4′-hydroxy-3′-iso-propylphenoxy]-benzeneacetic acid, reference compound] | – | – | – | – | – | – | – | – | – | marked and statistically significant increases | significantly decreased serum cholesterol | 40 | 0.4 | 0.15 | 0.4 |
